Measurements: paper PMC6327999, “Hydroxyl-substituted double Schiff-base condensed 4-piperidone/cyclohexanones as potential anticancer agents with biological evaluation” (Journal of Enzyme Inhibition and Medicinal Chemistry, 2019)

Columns and labels:
[1] = tested on: human chronic myelogenous leukemia cell line (K562); assay: Cytotoxicity, MTT assay, K562; type: cell-based
Method in brief: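 Cells in RPMI 1640 with 10% FBS were seeded at 1 × 10^4 cells/well for 24 h, then exposed for 24 h to compound at 0.01–50 µg/mL. MTT was added for 4 h at 37 °C, and formazan was dissolved in DMSO and read at 570 nm. IC50 came from triplicate viability relative to untreated controls.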

[2] = Body weight of HepG2-bearing mice; type: in vivo, Balb/c nude mice; details: measured every 2 days during treatment
Experimental: (§1) The antitumor effect was investigated on the seven-week-old female Balb/c nude mice (n = 30) weighing 19–21 grams (Shanghai Laboratory Animal Center). Briefly, 0.2 mL HepG2 cells (1 × 10^7/mL) were inoculated subcutaneously into the alar left of each mouse. On the third day after the inoculation, the HepG2-bearing mice were randomly divided into five groups (n = 6/group) and administrated the according drug or solvent. […] The control group was administrated of saline as negative control. The body weight and tumor volumes calculation were recorded from the day of treatment, and the tumor volumes were calculated using the following equation: tumor volume = length × (width)^2 × π/6. Animal experiments were reviewed and approved by the Binzhou Medical University Experimental Animal Committee.

HepG2 cells = assay: Apoptosis assay, Annexin V-FITC/PI flow cytometry; type: cell-based, human; details: 5c treatment for 24 hours, 1.0, 2.0, 4.0 µM, early and late apoptosis
Experimental: HepG2 cells were plated at a density of 1 × 10^5 cells/well in 24-well plates. […] One hundred microliters of such solution (1 × 10^5 cells) was mixed with 5 µL of Annexin V-FITC and 5µL of Propidium Iodide (BD Biosciences, San Jose, CA, USA) according to the manufacturer’s instruction. The mixed solution was gently vortexed and incubated in the dark at room temperature for 15 minutes. Four hundred microliters of 1X binding buffer were then added to each tube and cell apoptosis analysis was performed by flow cytometry (BD FACS Calibur) within 1 hour.

Bcl-2 = assay: Western blot, Bcl-2 expression; type: cell-based, human; details: HepG2, 3 h, 1.0, 2.0, 4.0 µM, vs negative control
Experimental: The HepG2 cell lines were treated with different dose of by BAP 5c (1.0, 2.0, 4.0 µM, respectively) for 3 hours, then washed twice with PBS, and lysed in ice-cold modified RIPA buffer containing PMSF (RIPA:PMSF = 100:1; the ultimate density of PMSF is 1.0 mM). The lysates were kept for 30 minutes on the ice, and then centrifuged for 15 min at 12000 rpm/min at 4 °C and the supernatant was collected. The proteins were boiled at 95 °C at 5 min with loading buffer (the volume ratio of protein and the loading buffer is 4:1). Each 50 µg protein of cell lysates were separated by 10% SDS-PAGE gel electrophoresis. The proteins were then transferred onto polyvinylidene fluorides membrane. The membranes were probed with antibodies and visualised using an enhanced chemiluminescence (ECL) detection kit according to the manufacturer instruction.

HepG2 xenografts = assay: In vivo antitumor efficacy, HepG2-bearing nude mice; parameters: species or system Balb/c nude mice
Experimental: as §1

## O=C1/C(=C/c2cc(/N=C/c3ccc(O)c(O)c3O)ccc2F)CNC/C1=C\c1cc(/N=C/c2ccc(O)c(O)c2O)ccc1F [5c]
[1]; Homo sapiens, K562, MTT, 24 hours
  IC50: 1.3 ± 0.1 µM
[1]; quotient of the IC50 values towards nonmalignant LO2 cells
  K562 SI: 11.8
[2]
  body weight change: no apparent change in body weight
HepG2 cells
  HepG2 cells apoptosis: dose-dependent apoptosis
Bcl-2
  expression level of Bcl-2: down-regulate the expression level of Bcl-2
HepG2 xenografts; 1.0 mg/kg/d i.p. for 20 days
  tumor growth inhibition: light inhibitory activity
HepG2 xenografts; 10 mg/kg/d i.p. for 20 days
  tumor growth inhibition: significantly inhibited the tumor growth
